Data from patent publication US20260325465A1, “SHP-1 INHIBITORS FOR TREATING CANCER” (MDX MANAGEMENT LLC, priority 2022, published 2026).
“Also recorded” adds a separate entry of the source.

Columns and labels:
[1] = system: PTP/SHP-1 activity in KPC tumor; experiment: PTP/SHP-1 activity in KPC tumor in vivo; parameters: species or system murine; conditions: therapeutic treatment of KPC tumor
[2] = system: Human monocyte-derived macrophages; experiment: Human monocyte-derived macrophage response in tumor milieu configurations; format: cell-based; conditions: co-cultured with cancer cells (configuration 3)
Method: Mechanism by which tumor cells inhibit macrophage proinflammatory response in TME was studied. As shown in panel A of FIG. 19, macrophage responses were assayed in a tumor milieu: Human monocyte-derived macrophages (MØ) were cultured alone (configuration 1), cultured in the presence of cancer cells-conditioned medium (50%) that contained cancer cell secreted factors (secretome; configuration 2), or co-cultured with cancer cells (cell “touch” model; configuration 3), or co-cultured with cancer cells that were placed in a transwell (0.4 μm) without “touching” MØ(configuration 4). Macrophages in these settings were treated with proinflammatory stimuli TLR agonist R848 (l g/ml), R848 plus IFNγ (40 ng/ml), or the sting activator MSA-2 (10 μg/ml).

[3] = system: PTP activity in macrophages; experiment: PTP activity in macrophages co-cultured with cancer cells and stimulated with IFNγ/LPS or TLR agonists; format: cell-based; parameters: concentration or dose not given beside the values; conditions: induced by IFNγ/LPS or TLR agonists, with cancer cell ligation, 30 min, 37 °C
Method: (§1) FIGS. 3A-3E depict modulation of SHP-1 activity in proinflammatory macrophages in cancer. Macrophages co-cultured with cancer cells were stimulated with IFNγ/LPS or TLR agonists (αTLR) comprising CpG, polycytidylic acid (i.e., PolyI:C) and R848 (each 0.4 μg/ml) for 30 min (37 °C) in the presence or the absence of different SHP-1 or SHP-2 inhibitor or activator, followed by cell lysis and assays of PTP activity. FIG. 3A depicts SHP-1 activity regulation mechanisms. […] FIG. 3E depicts that PKCθ negatively regulates SHP-1 activity at a moderate level.

SHP-1 [4] = experiment: SHP-1 activity in macrophages under proinflammatory stimulation and cancer cell ligation; format: cell-based; conditions: IFNγ/LPS stimulation, cancer cell ligation
Method: FIGS. 2A-2G depict that the inhibition of SHP-1 enhances macrophage proinflammatory response, antigen presentation and phagocytosis in a tumor milieu. FIG. 2A and FIG. 2B depict that SHP-1 activity in macrophages is triggered by proinflammatory stimulation and the extracellular cancer cell ligation (“touching”) of macrophages (green bar in FIG. 2A). […] The SHP-2 inhibitor SHP099 (1 μg/ml) was used in assays. FIG. 2C depicts the inhibition of SHP-1 by TPI-1 dose-dependently recovers IFNγ/LPS-induced activation of STAT1 (p-STAT1) and Erk1/2 (p-Erk1/2) de-activated by SHP-1 (red line). FIG. 2D and FIG. 2E depict that the inhibition of SHP-1 in macrophages by TPI-1 enhances production of proinflammatory cytokines (FIG. 2D) and expression of immunogenic antigen presentation machinery (FIG. 2E) by IFNγ/LPS in a tumor milieu. […] The SHP-1 and SHP-2 inhibitors TPI-1 and SHP099, respectively, was used at 1 μg/ml in assays.
as §1
In addition to TPI-1, several other SHP-1 inhibitors such as PTP inhibitor-I, PTP inhibitor-III, and recently reported vitamin E (9, 10) and phomoxanthone A and B (P×A and P×B) (11) were tested. Given that PKCθ modulates SHP-1 activity through phosphorylating Ser591 (12, 13), PKCθ inhibitor and activator were also tested in various assays.

macrophages [5] = experiment: Macrophage cytokine production under immunosuppressive or proinflammatory stimulation with cancer cell ligation; format: cell-based
Description: FIGS. 6A-6D depict that the inhibition of SHP-1 promotes anti-tumor effects or pro-tumor effects under different circumstances. FIG. 6A depicts that intratumoral macrophages upregulate expression of iRs (Pir-B, Siglec E, F and G, and SIRPα) along with tumor progression to late-stage large sizes. KPC pancreatic tumors of small sizes (<150 mm^3) and those grown to larger sizes (>800 mm^3) were dissociated to single cells, followed by flow cytometry analyses for cell surface protein expression on macrophages (gated F4/80+). FIG. 6B depicts that the inhibition of SHP-1 alone promotes TME immunosuppression. Excised MC38 solid tumor cubes were treated with SHP-1 inhibitor TPI-1 (100 nM) or vehicle (DMSO) in a cell culture setting. After 24 h, tumor secreting cytokines into the culture medium were assayed by ELISA.
The SHP-1 activity in non-therapeutic solid tumors is low (see FIGS. 7A-7D), and this low activity inhibits immunosuppressive receptor signaling. […] In parallel experiments, the same SHP-1 inhibitors augmented macrophage responses to the M1 stimuli IFNγ and LPS and enhanced proinflammatory cytokine production.

[6] = system: TLR7/8 overexpressing pancreatic cancer cell line; conditions: stimulation of TLR7/8; cited from earlier work
[7] = system: malignant melanoma and advanced malignancies; conditions: cited from earlier work
macrophages [8] = experiment: Macrophage antigen presentation and proinflammatory response in presence of tumor cells with or without iShp1; format: cell-based; conditions: for pro-inflammatory activation of macrophages: combined with iShp1 (TPI-1), tumor milieu
Method: FIGS. 16A-16D depicts activation of macrophage proinflammatory response and antigen presentation in a tumor milieu by SHP-1 inhibition (iShp1) combination regimens. FIG. 16A depicts the testing system. FIG. 16B and FIG. 16C depict effects of interferons with or without TPI-1. FIG. 16D depicts effects of various agents including IL-1 family cytokines (IL-1, IL-18), TNFα and TLR ligands combined with TPI-1.
In vitro macrophages were assayed in the presence of tumor cells that ligate macrophage iRs with or without inhibition of SHP-1 (iShp1) by TPI-1. See the testing system in FIG. 16A.

SHP-2 = SHP-2 binding to macrophage iRs with phosphorylated ITIMs; format: cell-based; conditions: macrophages stimulated
SHP-1 [9] = experiment: SHP-1 binding to macrophage iRs with phosphorylated ITIMs; format: cell-based; conditions: macrophages stimulated
Description: Proinflammatory signal-induced Src family TK(s) mediate phosphorylation in the cytoplastic domain ITIMs that dock SHP-1 leading to SHP-1 activation.

Molecule: Nc1nc2c(ncn2[C@@H]2O[C@@H]3COP(=O)(O)O[C@H]4[C@@H](O)[C@H](n5cnc6c(N)ncnc65)O[C@@H]4COP(=O)(O)O[C@@H]2[C@@H]3O)c(=O)[nH]1 [2′3′-cGAMP]
- PTP/SHP-1 activity induced in tumor [1]: induced spikes of PTP activities

Molecule: Nc1ncn([C@@H]2O[C@H](CO)[C@@H](O)[C@H]2O)c(=O)n1 [Azacitidine (AZA), Azacitidine]
- PTP/SHP-1 activity induced in tumor [1]: spikes of SHP-1 activity are induced

Molecule: COc1cc2cc(C(=O)CCC(=O)O)sc2cc1OC [MSA-2]
- macrophage proinflammatory response in co-culture with cancer cells [2]: abolishment of proinflammatory response and enhanced immunosuppression with high IL-10 and TGFβ production

Molecule: O=C1C(=NNc2ccc(S(=O)(=O)O)cc2)C(c2ccc([N+](=O)[O-])cc2)=NN1c1ccccc1 [PHPS1]
- PTP activity diminished in macrophages [3]: < 10%

Molecule: CCCCCCCCCCCCCC(=O)O[C@@H]1[C@@H](C)[C@@]2(O)[C@@H](C=C(CO)C[C@]3(O)C(=O)C(C)=C[C@@H]23)[C@@H]2C(C)(C)[C@]12OC(C)=O [PMA]
- SHP-1 activity in macrophages (effect in words) (SHP-1 [4]): moderately inhibited SHP-1; also recorded: reduced SHP-1 activity

Molecule: O=C(CBr)c1ccc(O)cc1 [PTP-I]
- macrophage production of IL-12 and TNFα (macrophages [5]; IFNγ and LPS): dose-dependently augmented macrophage proinflammatory response with increased IL-12 and TNFα
- macrophage production of IL-10 and TGFβ (macrophages [5]; IL-4/13 or IL-10 stimulation): dose-dependently augmented
- PTP activity diminished in macrophages [3]: > 70%

Molecule: CCOCc1nc2c(N)nc3ccccc3c2n1CC(C)(C)O [R848]
- macrophage proinflammatory response in co-culture with cancer cells [2]: abolishment of proinflammatory response and enhanced immunosuppression with high IL-10 and TGFβ production
- cell proliferation and chemosensitivity [6]: increased cell proliferation and reduced chemosensitivity

Molecule: CC1(N)CCN(c2cnc(-c3cccc(Cl)c3Cl)c(N)n2)CC1 [SHP099]
- PTP activity diminished in macrophages [3]: < 10%

Molecule: O.O.O.O.O.O.O.O.O.O=C([O-])[C@@H]1[O][Sb]2([O-])([O][Sb]34([OH])[O][C@H]([C@H](O)CO)[C@H]([O]3)[C@H](C(=O)[O-])[O]4)[O][C@H]([C@H](O)CO)[C@@H]1[O]2.[Na+].[Na+].[Na+] [SSG, sodium stibogluconate]
- effect against tumor development ([7]; combination with interferons, with or without chemotherapy): no effect was seen against tumor development
- most common toxic side-effects, share of patients ([7]; thrombocytopenia, elevated serum lipase, fatigue, fever, chills, anemia, hypokalemia, pancreatitis, skin rash): up to 68 % of patients

Molecule: CC(C)[C@@](C)(O)[C@@H]1CN(c2nc(-c3[nH]nc4ncccc34)c(F)cc2Cl)CCN1 [VTX27]
- SHP-1 activity in macrophages (effect in words) (SHP-1 [4]): increased SHP-1 activity

Molecule: IFNα
- antigen presentation and proinflammatory response (macrophages [8]; alone, without and with iShp1 (TPI-1)): did not induce antigen presentation or proinflammatory response

Molecule: IL-1β: IL-1 family cytokine
- pro-inflammatory activation of macrophages (macrophages [8]): exhibited capacities of pro-inflammatory activation of macrophages

Molecule: IL-4: immunosuppressive cytokine
- binding of SHP-2 to iR ITIMs (SHP-2): SHP-2 binding is dominated
- binding of SHP-1 to iR ITIMs (SHP-1 [9]): leads to binding of SHP-1

Molecule: IL-6: activating cytokine
- binding of SHP-1 to iR ITIMs (SHP-1 [9]): SHP-1 binding occurs exclusively under proinflammatory conditions

Molecule: IL-10: immunosuppressive cytokine
- binding of SHP-2 to iR ITIMs (SHP-2): SHP-2 binding is dominated
- binding of SHP-1 to iR ITIMs (SHP-1 [9]): leads to binding of SHP-1

Molecule: IL-18: IL-1 family cytokine
- pro-inflammatory activation of macrophages (macrophages [8]): exhibited capacities of pro-inflammatory activation of macrophages

Molecule: Phomoxanthone A [Phomoxanthone A (PXA)]
- SHP-1 activity in macrophages (effect in words) (SHP-1 [4]): dose-dependently, moderately inhibited SHP-1 activity

Molecule: TGFβ: immunosuppressive cytokine
- binding of SHP-2 to iR ITIMs (SHP-2): SHP-2 binding is dominated
- binding of SHP-1 to iR ITIMs (SHP-1 [9]): leads to binding of SHP-1

Molecule: TNFα
- binding of SHP-1 to iR ITIMs (SHP-1 [9]): SHP-1 binding occurs exclusively under proinflammatory conditions
- pro-inflammatory activation of macrophages (macrophages [8]): exhibited capacities of pro-inflammatory activation of macrophages

Molecule: lipopolysaccharide [LPS]
- binding of SHP-1 to iR ITIMs (SHP-1 [9]): SHP-1 binding occurs exclusively under proinflammatory conditions

Molecule: pervanadate
- PTP activity diminished in macrophages [3]: > 70%

Molecule: polycytidylic acid [PolyIC]
- binding of SHP-1 to iR ITIMs (SHP-1 [9]): SHP-1 binding occurs exclusively under proinflammatory conditions

B1: IFNγ: type II interferon (protein, UniProt P01579 24-161, looked up)
Interferon gamma: QDPYVKEAENLKKYFNAGHSDVADNGTLFLGILKNWKEESDRKIMQSQIVSFYFKLFKNFKDDQSIQKSVETIKEDMNVKFFNSNKKKRDDFEKLTNYSVTDLNVQRKAIHELIQVMAELSPAAKTGKRKRSQMLFRG
- binding of SHP-1 to iR ITIMs (SHP-1 [9]): SHP-1 binding occurs exclusively under proinflammatory conditions
- antigen presentation (macrophages [8]; plus iShp1 (TPI-1)): significantly increased antigen presentation
- proinflammatory cytokine production (macrophages [8]; plus iShp1 (TPI-1)): did not elicit proinflammatory cytokine production
